The results in this text go back to publication PMC6315548, “Cardiac Targeting Peptide, a Novel Cardiac Vector: Studies in Bio-Distribution, Imaging Application, and Mechanism of Transduction” (Biomolecules, 2018).

One series deals with beating neonatal CMCs. Kind of series: Uptake of dual-labeled CTP by beating neonatal cardiomyocytes (confocal microscopy). It counts as cell-based, mouse. As to conditions: Digoxin 100 nM; 20 mM K+; dual-labeled CTP 25 μM; n = 3; p-value < 0.001. How it is done:
To further study the CTP’s mechanism of transduction, CMCs were isolated from 1–3-day old mouse pups using published protocols. Beating CMCs were incubated with the dual-labeled CTP (25 μM) under normokalemic (5 mM) and hyperkalemic (20 mM) conditions. […] The degree of transduction of these cells was quantified using confocal microscopy. […] Rhodamine with an ester link was used as a negative control.

The next series deals with wild-type CD1 mice. The series is described as follows: Cardiac targeting peptide imaging studies (microSPECT/CT and dynamic planar imaging). As to conditions: 1-5 mCi injected; dual modality microSPECT/CT. Type of series: in vivo, mouse. Here is the method:
Cardiac targeting peptide was synthesized as detailed above, with HYNIC conjugated to the N-terminus and labeled with ^99mTc in a manner that was analogous to that described previously. The desired ^99mTc-HYNIC-CTP was purified from the crude reaction mixture using solid-phase extraction methods. The radiochemical purity of the final product was determined using reverse-phase HPLC methods.
Wild-type, 6–8 week old, CD1 mice (~25 g) were injected with 1–5 mCi of ^99mTc Sestamibi or ^99mTc-HYNIC-CTP, and was imaging performed immediately post-injection and at various time points using a Siemens Inveon dual-modality single photon emission computerized tomography/computerized tomography (SPECT/CT) with 5-MWB-1.0 collimators (Siemens Corporation, Washington, DC, USA). The images were resliced for a coronal view and they were Z-stack summed. Analysis of the distribution of the radioisotope was performed using ImageJ software. Measurements were taken by selecting a region of interest at the 0 h time point, applying the same region at different time points for dynamic time course studies. All counts were corrected for the radioactive decay of ^99mTc. For a comparison of dynamic planar images, the highest count in each organ (heart, kidney, and bladder) was set at 100%, and the counts at other time-points plotted as a percentage of that count.

Series [1] concerns human iPSC-derived beating cardiomyocytes (CMCs). Kind of series: Transduction of human iPSC-derived cardiomyocytes (confocal imaging). It counts as cell-based. As to conditions: 10 μM, 30 min, 37 °C; washed 3x with PBS; confocal microscopy; Supplemental Figure 5. How it is done:
All protocols involving human tissue samples were approved by the University of Pittsburgh Institutional Review Board (No. PRO09090021). […] After the incubation period, cells were washed, and live confocal imaging was performed immediately.

The next series has as its target T1, transferrin receptor (Rattus norvegicus, UniProt Q99376).
T1 construct: endogenous in cells; host or cells: H9C2 rat cardiomyoblast cells
Kind of series: LRC-TriCEPs ligand-receptor capture on H9C2 cells, mass spectrometry (transferrin positive control). It counts as binding. As to conditions: TriCEPS-transferrin conjugate on H9C2 cells; triplicate. From the text: To identify a possible binding partner for CTP, we utilized LRC-TriCEPs technology a service provided by Dualsystems Biotech (Zurich, Switzerland). This methodology relies on TriCEPs™, a trifunctional chemoproteomics reagent, containing (1) a N-hydroxysuccinimide (NHS) ester for attachment to the ligand, (2) a protected hydrazine function for capturing the interacting receptor, and (3) a function for the purification of the ligand-receptor complex. Rat cardiomyoblast cell line H9C2 cells were grown in Dulbecco’s Modified Eagle’s Medium: Nutrient Mixture F-12 (DMEM/F12) (Gibco, Gaithersburg, MD, USA; cat #11039) medium supplemented with 10% fetal bovine serum and maintained at ≤70% confluence. A pretest was performed to identify the binding conditions of the TriCEPS-CTP conjugate on H9C2 cells at varying temperatures, times of incubation, and pH, with successful labeling being analyzed by fluorescence-activated cell sorting (FACs). The LRC-TriCEPS experiment was performed with TriCEP-CTP, TriCEPS-transferrin, and TriCEPS-glycine conjugates, each in triplicate. After the incubation period, cells were lazed and purified using solid-state chromatography, and identified using mass spectrometry. […]

T1 sequence (Q99376 whole entry): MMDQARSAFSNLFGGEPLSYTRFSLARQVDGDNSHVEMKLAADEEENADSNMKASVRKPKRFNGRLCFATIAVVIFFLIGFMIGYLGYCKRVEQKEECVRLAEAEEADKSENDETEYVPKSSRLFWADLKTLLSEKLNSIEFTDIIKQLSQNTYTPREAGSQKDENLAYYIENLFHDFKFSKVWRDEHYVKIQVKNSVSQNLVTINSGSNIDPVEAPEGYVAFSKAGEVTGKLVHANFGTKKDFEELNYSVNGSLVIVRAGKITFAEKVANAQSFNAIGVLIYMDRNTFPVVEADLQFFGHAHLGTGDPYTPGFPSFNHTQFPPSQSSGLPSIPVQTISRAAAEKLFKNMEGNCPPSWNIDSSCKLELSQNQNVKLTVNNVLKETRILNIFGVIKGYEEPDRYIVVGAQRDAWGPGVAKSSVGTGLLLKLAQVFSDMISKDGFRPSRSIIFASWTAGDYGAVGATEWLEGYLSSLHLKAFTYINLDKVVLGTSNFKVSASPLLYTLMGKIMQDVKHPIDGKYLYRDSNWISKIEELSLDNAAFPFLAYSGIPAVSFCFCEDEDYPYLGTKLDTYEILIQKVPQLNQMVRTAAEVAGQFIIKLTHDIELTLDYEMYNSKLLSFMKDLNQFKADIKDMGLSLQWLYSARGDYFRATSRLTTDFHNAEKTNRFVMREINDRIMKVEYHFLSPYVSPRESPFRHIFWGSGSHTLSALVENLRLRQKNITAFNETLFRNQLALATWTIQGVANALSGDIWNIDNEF

Take `C[C@H]1O[C@@H](O[C@H]2[C@@H](O)C[C@H](O[C@H]3[C@@H](O)C[C@H](O[C@H]4CC[C@@]5(C)[C@H](CC[C@@H]6[C@@H]5C[C@@H](O)[C@]5(C)[C@@H](C7=CC(=O)OC7)CC[C@]65O)C4)O[C@@H]3C)O[C@@H]2C)C[C@H](O)[C@@H]1O` [Digoxin]: the “effect of pre-incubation on the hyperkalemia-induced increase in CTP uptake” value in the series on beating neonatal CMCs is reported as “significantly abrogated”.

Consider `[C-]#[N+]CC(C)(C)OC.[C-]#[N+]CC(C)(C)OC.[C-]#[N+]CC(C)(C)OC.[C-]#[N+]CC(C)(C)OC.[C-]#[N+]CC(C)(C)OC.[C-]#[N+]CC(C)(C)OC.[Tc]` [^99mTc Sestamibi], for which, in the series with wild-type CD1 mice, the “uptake by the heart (SPECT/CT)” value is reported as “cardiac uptake” and the “uptake in the liver or gut (for Sestamibi also kidneys)” value was “significant uptake”.

On to H-STLMKFCYVEQN-OH [RAN], for which, in series [1], the “uptake by human iPSC-derived CMCs” value is “some background binding to the gel matrix”.

For the molecule “transferrin: positive control ligand in the LRC-TriCEPS experiment”, the “fold increase of transferrin receptor in the positive control over CTP” value with transferrin receptor is listed as about 5 fold.
